In the METLIN SMRT retention time set (Domingo-Almenara et al. 2019):

Assay: gradient 5% acetonitrile 3 min, to 50% in 2 min, to 85% in 15 min, held 3 min, 100 µL/min
Conditions: column: Zorbax Extend-C18 2.1 x 50 mm; eluents: water / acetonitrile, 0.1% formic acid
In short: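 Each retention time is based on an adduct peak selected computationally and verified by manual inspection. Measurements used HPLC–quadrupole time-of-flight mass spectrometry in positive and negative ionization mode on mixtures of ~100 pure standards. Chromatography ran on a Zorbax Extend-C18 column (2.1 × 50 mm, 1.8 μm) at 100 μL/min with water and acetonitrile, each containing 0.1% formic acid, and dead and dwell volumes of 40 μL and 900 μL.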

Structure (SMILES) | RP-LC retention time [s]
O=C(Cn1ncccc1=O)Nc1nccs1 | 554
O=C([C@H]1C[C@@H](F)CN1S(=O)(=O)c1ccc(Cl)cc1)N1CCOCC1 | 711
CCC(=O)N(C1CCOCC1)C1CCN(Cc2cn(CC)c3ccccc23)CC1 | 674
Cc1cccc(-c2nnc(SCc3cc(=O)n4nc(C)sc4n3)o2)c1 | 782
Cc1ccccc1NC(=O)C1(C)Oc2cccnc2N(C)C1=O (centres undefined) | 778
CCCc1noc(-c2nnn3c2COC(c2ccc(OC)cc2)C3)n1 (centres undefined) | 1010
Cc1noc(C)c1CCNC(=O)C1CCN(C(=O)c2ncn3c2COC(c2ccc(F)cc2)C3)CC1 (centres undefined) | 711
Cc1ccc(C2=NC3(CCN(C(C)C)CC3)NC(c3ccccc3O)C2)cc1 (centres undefined) | 612
CC(=O)c1ccc(OC(=O)c2ccc3c(c2)C(=O)N(c2ccccc2)C3=O)cc1 | 751
CCc1ccc(C2=C(C)C(N3CCCN(C(=O)C4CCCO4)CC3)=NS2(=O)=O)cc1 (centres undefined) | 778
CN(C)CC1(O)CCC2(CCN(Cc3ccc(Cl)c(F)c3)CC2)CC1 | 658
CCOC(=O)c1ccc(N2C=C(C#N)S(=O)(=O)c3ccc(C)cc32)cc1 | 978
CN(C)C(CNS(=O)(=O)c1ccc(Cl)cc1)c1ccccc1 (centres undefined) | 652
O=S(=O)(Nc1ccc(F)cc1)c1ccc2c(c1)-c1oncc1CO2 | 866
O=C(CCc1csc2nc(-c3ccc(Cl)cc3)cn12)Nc1nccs1 | 774
CSc1ccc(CNC(=O)C2CCCN(c3ccc(=O)n(-c4ccc(C)c(Cl)c4)n3)C2)cc1 (centres undefined) | 1010
COCc1c(C(=O)O)nnn1-c1ccc(C(C)C)cc1 | 825
Cc1noc(C)c1Cc1ccc(C(=O)NCC23CCC=C2N(C)C(=O)CC3)o1 (centres undefined) | 727
c1ccc(-n2nnnc2-c2cccc3ccccc23)cc1 | 1010
CNC(=O)Cn1nc(C2CCN(C(=O)c3ccc(F)cc3)CC2)c2c1CCOC2 | 614
COc1ccc(-c2nc(-c3ccc4c(c3)oc(=O)n4C(C)C)no2)c(OC)c1 | 1080
CCCn1cc(CCNS(=O)(=O)CC)c2cccnc21 | 661
CCCn1cc(C(=O)NCc2cccc(C)c2)c(S(=O)(=O)N2CCC(C)CC2)n1 | 1130
Cc1cccc(N2C(=O)CN(Cc3ccccc3)[C@H]3CS(=O)(=O)C[C@H]32)c1 | 859
COc1cccc(CN2C[C@@H]3C(=O)N(CCCN4CCCC4=O)C(=O)[C@@H]3C2)c1 | 598
CCSc1nnc(-c2nn(C)c3c2CN(S(=O)(=O)Cc2ccccc2F)CC3)n1CC | 905
O=C(Nc1ccc2c(c1)OCCO2)C1CCCN(S(=O)(=O)Cc2ccc(F)cc2)C1 (centres undefined) | 905
O=C(CCNc1cnc2cnccn12)Nc1ccc2c(c1)OCO2 | 570

Structure (SMILES) | RP-LC retention time [s]
O=C(NCc1ccc2c(c1)OCO2)C1CCCN(c2ccc(=O)n(-c3cccc(Cl)c3)n2)C1 (centres undefined) | 857
O=C(NCCCS(=O)(=O)N1CCN(c2ncccn2)CC1)C1CC1 | 608
CC(C)Oc1ccc(CNC(=O)c2ccc3c(c2)N(C)C(=O)c2ccccc2O3)cc1 | 958
O=C(Cc1ccccc1)N1[C@H]2CC[C@@H]1c1cnc(-c3ccccc3)nc1C2 | 898
CCc1nnc(NS(=O)(=O)c2ccc(NC(=O)c3ccc(Cl)s3)cc2)s1 | 821
Cc1ccc(F)cc1NC(=O)Cn1nc2c(Oc3cccc(F)c3)nccn2c1=O | 829
COCCCNC(=O)C1CCCN(c2cnc3nc(C)c(C)nc3c2)C1 (centres undefined) | 619
CCn1cc(C)c(C(=O)O)c1CC(=O)NCc1cccs1 | 733
O=C(NC1CCCC1)c1cc(C2CC2)[nH]n1 | 692
Cc1nc([C@@H]2CN(Cc3ccc(Br)o3)C[C@H]2C(N)=O)n[nH]1 | 556
COc1ccc(NC(=O)C2CCN(S(=O)(=O)c3cn(C(C)C)cn3)CC2)cc1 | 711
Cc1cc2n(n1)CCC(=O)N2CCCC(=O)NCc1ccc(C)o1 | 644
CCN(CC)CCOC(=O)C(O)(c1ccccc1)c1ccccc1 | 714
CC(C)(CO)c1cc2cc(NC(=O)C3(c4ccc5c(c4)OC(F)(F)O5)CC3)c(F)cc2n1C[C@@H](O)CO | 1000
CC(=O)Nc1ccc(NC(=O)C2CCCN(C(=O)c3cc(-c4ccncc4)n[nH]3)C2)cc1 (centres undefined) | 566
COCC(=O)N1CCc2c(c(-c3nc(C4CC4)no3)nn2C)C1 | 653
CCNC(=O)c1n[nH]c2c1CC(C)CC2 (centres undefined) | 685
CCn1nnc2cc(-c3noc(C4CC(=O)N(c5ccc(C)c(C)c5)C4)n3)ccc21 (centres undefined) | 953
CO[C@H]1CN(C2CCN(S(=O)(=O)Cc3ccccc3F)CC2)[C@H]1c1ccncc1 | 620
Cc1nn(-c2nc3ccccc3[nH]2)c2c1C(=O)CC(c1ccccc1)C2 (centres undefined) | 990
CCOC(=O)C1=C(CN2CCC(N3CCCCC3)CC2)NC(=O)NC1c1ccc(Cl)cc1 (centres undefined) | 599
Cc1cc(Cl)ccc1S(=O)(=O)N1CCc2nn(CC(C)C)c(=O)n2CC1 | 919
Cn1ncc2c(Nc3ccc([N+](=O)[O-])cc3)nc(Cl)nc21 | 963
CCCn1cc(S(=O)(=O)Nc2ccc(F)cc2)c2cccnc21 | 858
CCC(=O)Nc1ccc(C2(C(=O)O)CCC2)cc1 | 673
Cc1noc(-c2ccccc2OC2CCNC2)n1 (centres undefined) | 590
CCOC(=O)c1sc2ncnc(N3CCc4ccccc4C3)c2c1C | 1310

Now from value to compound:

RP-LC retention time [s] | Structure (SMILES)
1030 | CCc1nn2c(CNC(=O)c3cccc(Br)c3)c(-c3ccccc3)nc2s1
647 | O=C(Cn1c(SCc2cccc(F)c2)nc2cccnc21)N1CCCC1
854 | CCc1nn2c(CNC(=O)c3ccsc3)c(-c3ccccc3)nc2s1
546 | Cc1ccccc1-c1ccc(N2CCC(C(=O)Nc3cccnc3)CC2)nn1
792 | O=C(CCn1cnc2cc(-c3noc(/C=C/c4ccccc4)n3)ccc21)N1CCCC1
774 | CN(C(=O)Cn1ccn2nc(-c3ccccc3)c(CO)c2c1=O)c1ccccc1
603 | COc1ccc(-c2noc(-c3ccc(NCCCN4CCC(N5CCCCC5)CC4)nn3)n2)cc1
756 | O=C1NC2(CCN(C(=O)Cc3ccccc3)CC2)Nc2c(Cl)cccc21
610 | COc1ccc(NC(=O)c2nnc(COCC(=O)N3CCN(c4ccccn4)CC3)s2)cc1
623 | O=C(COc1ccccc1)N1CCN(c2nc(CN3CCCC3)cs2)CC1
1030 | O=c1ccc(-c2cccc(Cl)c2)nn1CCc1nc(-c2ccccc2)no1
831 | CCOc1ccccc1CNC(=O)C1CCCN(c2nn3c(=O)c4c(nc3s2)CCCC4)C1 (centres undefined)
1160 | Cc1ccc(-c2noc(-c3cccc(S(=O)(=O)Nc4cccc(C#N)c4)c3)n2)cc1
777 | O=C(c1cc(-c2ccco2)on1)N1CCCC1c1ccccc1F (centres undefined)
564 | CN1CCN(C(CNC(=O)Cc2cccc3ccccc23)c2ccsc2)CC1 (centres undefined)
1050 | CCCNC(=O)C1CCCN(S(=O)(=O)c2cc(-c3noc(C4CCCC4)n3)cs2)C1 (centres undefined)
805 | Cc1nc(CC(=O)NCc2ccc(C(F)(F)F)cc2)sc1C(=O)NCc1ccccc1

RP-LC retention time [s] | Structure (SMILES)
683 | O=C(c1n[nH]c2ccccc12)N1CCC[C@H]1c1nc(-c2ccccc2)n[nH]1
595 | Cn1cc(CCN2CCC(C(=O)NCc3ccc(F)cc3)CC2)c2cccnc21
864 | O=C(NCc1ccccc1)C1CN(S(=O)(=O)c2cccnc2)CC12CCCCC2 (centres undefined)
794 | O=C(CC1CCCCN1S(=O)(=O)c1ccccc1)NCCc1c[nH]c2ccccc12 (centres undefined)
578 | O=C(CSc1ccc(-n2ccnc2)nn1)N1CCc2ccccc21
696 | Cc1oc(-c2ccc(C(=O)NCCN(C)C)cc2)nc1CSc1ccccc1
711 | CS(=O)(=O)c1cccc(-c2nnc(NC(=O)c3ccc(Cl)s3)o2)c1
802 | Cc1ccc(Cl)cc1NC(=O)C1CCCN(c2nnc(C)c3c(C)n(-c4ccccc4)nc23)C1 (centres undefined)
679 | COCCNC(=O)C1CCN(S(=O)(=O)c2cc(-c3noc(C)n3)cs2)CC1
680 | O=C(NCCCN1CCCC1)c1ccc(-c2noc(-c3ccccc3)n2)s1
781 | O=C(Cc1c[nH]c2ccccc12)N1CCC(NS(=O)(=O)c2ccc(F)cc2)CC1
1210 | Cc1ccc(-c2noc(C3CCCN3C(=O)c3ccc(C(C)C)cc3)n2)cc1 (centres undefined)
986 | O=S(=O)(c1cc(-c2nnc(C3CC3)o2)co1)N1CCN(c2ccccc2F)CC1
853 | O=C(CN1CCN(Cc2ccccc2F)C1=O)NCc1ccccc1Br
582 | Cc1noc(C)c1CN1CCC(NC(=O)Cc2ccc(F)cc2)CC1
692 | COc1ccc(N(Cc2nnc3n2CCCCC3)C(=O)Nc2ccccc2)cc1OC
797 | O=C(NCC1CCCO1)c1nnc(-c2ccc(S(=O)(=O)N3CCCCC3)cc2)o1 (centres undefined)
